# Values quoted from earlier work as cited in patent US20020165594A1, “Apparatus and method of photodynamic eradication of organisms utilizing pyrrolnitrin” (Merrill A. Biel, priority 2001, published 2002).
# Settings: orally and intravenously in high doses
smiles,measurement,value
CN(C)c1ccc2nc3ccc(=[N+](C)C)cc-3sc2c1 [Methylene blue],toxic effects on administration to humans,without any toxic effects
